Results reported in PubChem BioAssay (NCI).
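GI50 is the concentration that inhibits growth by half. TGI: total growth inhibition.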

Assays:
Experiment in all cases: inhibition of tumour cell growth, NCI panel, 384-well format
786-0 renal = test system: 786-0 renal
A498 renal = test system: A498 renal
A549 NSCLC = test system: A549 NSCLC
ACHN renal = test system: ACHN renal
BT-549 breast = test system: BT-549 breast
CAKI-1 renal = test system: CAKI-1 renal
CCRF-CEM leukemia = test system: CCRF-CEM leukemia
COLO 205 colon = test system: COLO 205 colon
DU-145 prostate = test system: DU-145 prostate
EKVX NSCLC = test system: EKVX NSCLC
HCC-2998 colon = test system: HCC-2998 colon
HCT-116 colon = test system: HCT-116 colon
HCT-15 colon = test system: HCT-15 colon
HL-60(TB) leukemia = test system: HL-60(TB) leukemia
HOP-62 NSCLC = test system: HOP-62 NSCLC
HOP-92 NSCLC = test system: HOP-92 NSCLC
HS 578T breast = test system: HS 578T breast
HT29 colon = test system: HT29 colon
IGROV1 ovarian = test system: IGROV1 ovarian
K-562 leukemia = test system: K-562 leukemia
KM12 colon = test system: KM12 colon
LOX IMVI melanoma = test system: LOX IMVI melanoma
M14 melanoma = test system: M14 melanoma
MALME-3M melanoma = test system: MALME-3M melanoma
MCF7 breast = test system: MCF7 breast
MDA-MB-231 breast = test system: MDA-MB-231 breast
MDA-MB-435 melanoma = test system: MDA-MB-435 melanoma
MDA-MB-468 breast = test system: MDA-MB-468 breast
MOLT-4 leukemia = test system: MOLT-4 leukemia
NCI-H226 lung = test system: NCI-H226 lung
NCI-H23 lung = test system: NCI-H23 lung
NCI-H322M lung = test system: NCI-H322M lung
NCI-H460 NSCLC = test system: NCI-H460 NSCLC
NCI-H522 lung = test system: NCI-H522 lung
NCI/ADR-RES ovarian = test system: NCI/ADR-RES ovarian
OVCAR-3 ovarian = test system: OVCAR-3 ovarian
OVCAR-4 ovarian = test system: OVCAR-4 ovarian
OVCAR-5 ovarian = test system: OVCAR-5 ovarian
OVCAR-8 ovarian = test system: OVCAR-8 ovarian
PC-3 prostate = test system: PC-3 prostate
RPMI-8226 leukemia = test system: RPMI-8226 leukemia
RXF 393 renal = test system: RXF 393 renal
SF-268 CNS = test system: SF-268 CNS
SF-295 CNS = test system: SF-295 CNS
SF-539 CNS = test system: SF-539 CNS
SK-MEL-28 melanoma = test system: SK-MEL-28 melanoma
SK-MEL-5 melanoma = test system: SK-MEL-5 melanoma
SK-OV-3 ovarian = test system: SK-OV-3 ovarian
SN12C renal = test system: SN12C renal
SNB-19 CNS = test system: SNB-19 CNS
SNB-75 CNS = test system: SNB-75 CNS
SR leukemia = test system: SR leukemia
SW-620 colon = test system: SW-620 colon
T-47D breast = test system: T-47D breast
TK-10 renal = test system: TK-10 renal
U251 glioblastoma = test system: U251 glioblastoma
UACC-257 melanoma = test system: UACC-257 melanoma
UO-31 renal = test system: UO-31 renal

`CCC[C@H](Nc1nc(-c2ccc(NC(=O)NCC)c(OC)c2)ncc1C)c1cccnc1` was tested, and the GI50 ([…]-0 renal) was 0.0317 µM, the TGI (786-0 renal) was 0.0975 µM and the GI50 (A498 renal) was 0.0321 µM. It also gave a TGI (A498 renal) of 0.479 µM, a GI50 (A549 NSCLC) of 0.0434 µM and a TGI (A549 NSCLC) of 17.4 µM. It also gave a GI50 (ACHN renal) of 0.055 µM, a TGI (ACHN renal) of 15.6 µM and a GI50 (BT-549 breast) of 0.0227 µM. For the same molecule, the TGI (BT-549 breast) was 0.059 µM, the GI50 (CAKI-1 renal) was 0.03 µM and the TGI (CAKI-1 renal) was 14.8 µM. The GI50 (CCRF-CEM leukemia) was 0.02 µM, the TGI (CCRF-CEM leukemia) was 0.0345 µM and the GI50 (COLO 205 colon) was 0.0193 µM. The TGI (COLO 205 colon) was 0.0417 µM, the GI50 (DU-145 prostate) was 0.0307 µM and the TGI (DU-145 prostate) was 0.0916 µM. The GI50 (EKVX NSCLC) was 0.043 µM, the TGI (EKVX NSCLC) was 13.3 µM and the GI50 (HCC-2998 colon) was 0.0229 µM. It also gave a TGI (HCC-2998 colon) of 0.063 µM, a GI50 (HCT-116 colon) of 0.0263 µM and a TGI (HCT-116 colon) of 0.0745 µM. For the same molecule, the GI50 (HCT-15 colon) was 0.024 µM, the TGI (HCT-15 colon) was 0.0683 µM and the GI50 (HL-60(TB) leukemia) was 0.0165 µM. It also gave a TGI (HL-60(TB) leukemia) of 0.0304 µM, a GI50 (HOP-62 NSCLC) of 0.0331 µM and a TGI (HOP-62 NSCLC) of 1.18 µM. It also gave a GI50 (HOP-92 NSCLC) of 0.0304 µM, a TGI (HOP-92 NSCLC) of 0.65 µM and a GI50 (HS 578T breast) of 0.0187 µM. It also gave a TGI (HS 578T breast) of 0.0373 µM, a GI50 (HT29 colon) of 0.0289 µM and a TGI (HT29 colon) of 12.6 µM. For the same molecule, the GI50 (IGROV1 ovarian) was 0.0404 µM, the TGI (IGROV1 ovarian) was 12.4 µM and the GI50 (K-562 leukemia) was 0.0203 µM. For the same molecule, the TGI (K-562 leukemia) was 0.0396 µM, the GI50 (KM12 colon) was 0.0264 µM and the TGI (KM12 colon) was 1.18 µM. It also gave a GI50 (LOX IMVI melanoma) of 0.0256 µM, a TGI (LOX IMVI melanoma) of 0.067 µM and a GI50 (M14 melanoma) of 0.0218 µM. For the same molecule, the TGI (M14 melanoma) was 0.0636 µM, the GI50 (MALME-3M melanoma) was 0.032 µM and the TGI (MALME-3M melanoma) was 15 µM. It also gave a GI50 (MCF7 breast) of 0.0296 µM, a TGI (MCF7 breast) of 1.36 µM and a GI50 (MDA-MB-231 breast) of 0.0452 µM. For the same molecule, the TGI (MDA-MB-231 breast) was 17.4 µM, the GI50 (MDA-MB-435 melanoma) was 0.0191 µM and the TGI (MDA-MB-435 melanoma) was 0.0382 µM. The GI50 (MDA-MB-468 breast) was 0.0168 µM, the TGI (MDA-MB-468 breast) was 0.0334 µM and the GI50 (MOLT-4 leukemia) was 0.0197 µM. For the same molecule, the TGI (MOLT-4 leukemia) was 0.0342 µM, the GI50 (NCI-H226 lung) was 0.0269 µM and the TGI (NCI-H226 lung) was 0.0753 µM. It also gave a GI50 (NCI-H23 lung) of 0.0207 µM, a TGI (NCI-H23 lung) of 0.0516 µM and a GI50 (NCI-H322M lung) of 0.0408 µM. The TGI (NCI-H322M lung) was 20.6 µM, the GI50 (NCI-H460 NSCLC) was 0.0178 µM and the TGI (NCI-H460 NSCLC) was 0.0354 µM. The GI50 (NCI-H522 lung) was 0.0176 µM, the TGI (NCI-H522 lung) was 0.0378 µM and the GI50 (NCI/ADR-RES ovarian) was 0.17 µM. The TGI (NCI/ADR-RES ovarian) was 0.426 µM, the GI50 (OVCAR-3 ovarian) was 0.0195 µM and the TGI (OVCAR-3 ovarian) was 0.043 µM. It also gave a GI50 (OVCAR-4 ovarian) of 0.0486 µM, a TGI (OVCAR-4 ovarian) of 8.48 µM and a GI50 (OVCAR-5 ovarian) of 0.798 µM. The TGI (OVCAR-5 ovarian) was 84.8 µM, the GI50 (OVCAR-8 ovarian) was 0.0211 µM and the TGI (OVCAR-8 ovarian) was 0.0492 µM. The GI50 (PC-3 prostate) was 0.0385 µM, the TGI (PC-3 prostate) was 16.5 µM and the GI50 (RPMI-8226 leukemia) was 0.0182 µM. For the same molecule, the TGI (RPMI-8226 leukemia) was 0.0328 µM, the GI50 (RXF 393 renal) was 0.0164 µM and the TGI (RXF 393 renal) was 0.0406 µM. The GI50 (SF-268 CNS) was 0.0273 µM, the TGI (SF-268 CNS) was 0.169 µM and the GI50 (SF-295 CNS) was 0.0185 µM. The TGI (SF-295 CNS) was 0.0431 µM, the GI50 (SF-539 CNS) was 0.0183 µM and the TGI (SF-539 CNS) was 0.0365 µM. It also gave a GI50 (SK-MEL-28 melanoma) of 0.0956 µM, a TGI (SK-MEL-28 melanoma) of 16.2 µM and a GI50 (SK-MEL-5 melanoma) of 0.0175 µM. The TGI (SK-MEL-5 melanoma) was 0.0365 µM, the GI50 (SK-OV-3 ovarian) was 0.0348 µM and the TGI (SK-OV-3 ovarian) was 1.5 µM. The GI50 (SN12C renal) was 0.0379 µM, the TGI (SN12C renal) was 10.5 µM and the GI50 (SNB-19 CNS) was 0.0353 µM. For the same molecule, the TGI (SNB-19 CNS) was 10.3 µM, the GI50 (SNB-75 CNS) was 0.0334 µM and the TGI (SNB-75 CNS) was 11.3 µM. The TGI (SR leukemia) was 0.0161 µM, the GI50 (SW-620 colon) was 0.0434 µM and the TGI (SW-620 colon) was 16.5 µM. It also gave a GI50 (T-47D breast) of 0.0719 µM, a TGI (T-47D breast) of 14.4 µM and a GI50 (TK-10 renal) of 0.0473 µM. It also gave a TGI (TK-10 renal) of 16.7 µM, a GI50 (U251 glioblastoma) of 0.025 µM and a TGI (U251 glioblastoma) of 0.0646 µM. For the same molecule, the GI50 (UACC-257 melanoma) was 0.0745 µM, the TGI (UACC-257 melanoma) was 16.4 µM and the GI50 (UO-31 renal) was 0.0628 µM. The TGI (UO-31 renal) was 15.3 µM.
